Results taken from ChEMBL document CHEMBL3507680, “University of Dundee, Gates Library screen for HepG2 cell viability”.

Test: Human HepG2 cell viability assay in 384 well format
Type: toxicity, cell-based
Set-up: dose 125 nL, time 70.5 hour; cytotoxicity at 70.5 h: concentration not given beside the values
Settings: HepG2 cells, read-out: Inhibition

| Structure (SMILES) | cytotoxicity at 70.5 h [%] |
| --- | --- |
| Nc1nnc(SCC(=O)NCC(O)c2ccccc2)s1 (stereo unspecified) | 18.6 |
| CCN(C)C[C@@H]1CN(S(=O)(=O)c2ccc(C#N)cc2)C[C@@H]1CO | -1.6 |
| Cn1ncc2c(N3CCC(F)(F)CC3)nc(-c3ccncc3)nc21 | -13.7 |
| COc1ccc(-c2ccoc2)cc1CNC1CCCC1 | 10.7 |
| CCc1nccc(CN2CCCC(CNC(=O)c3occc3C)C2)n1 (stereo unspecified) | -10.1 |
| COCc1ncc(CN(Cc2ccco2)C(C)C(C)C)cn1 (stereo unspecified) | -15.5 |
| Cc1nc(N)nc(C)c1CC(=O)N1CCCN(CC2CC2)C(C(C)C)C1 (stereo unspecified) | -8.22 |
| CC(CNc1nccc(C(C)C)n1)Oc1cccnc1 (stereo unspecified) | -6.89 |
| CCN(CC1=CCN(C)CC1)C(=O)CCOC | -6.72 |
| CNc1ccnc(NCCC(=O)Nc2ccccc2OC)n1 | -3.36 |
| N[C@H]1CC[C@@H](n2cc(C(=O)NC3CCc4ccccc4C3)nn2)CC1 (stereo partly specified) | -11.5 |
| CN(Cc1ccccc1)S(=O)(=O)N1C[C@@H](C(=O)O)[C@H](C2CC2)C1 | -6.58 |
| C[C@@H]1CN(Cc2cccnc2)C[C@]1(C)O | -15.2 |
| Oc1cccc(CN2C[C@H]3CC[C@@H]2CN(Cc2ccc(F)cc2)C3)c1 | -1.41 |
| CN1CCN(Cc2ccccc2Oc2ccc(C(N)=O)cn2)CC1 | -6.47 |
| Cc1n[nH]c(C)c1CC(=O)N1CC[C@@](C)(O)[C@@H](Cc2ccccc2)C1 | -16.1 |
| CCCNc1ncc(CN2C[C@H]3CC[C@@H]2CN(C2CCOCC2)C3)cn1 | 2.68 |
| CN(CCn1cnc(-c2ccccc2)c1-c1ncc[nH]1)S(C)(=O)=O | 7.51 |
| c1ccc2c(c1)cnn2CCCNC1CCOC2(CCOCC2)C1 (stereo unspecified) | -13.6 |
| CCO[C@H]1CN(C)C[C@@H]1NC(=O)c1c[nH]nc1C1CCCCC1 | 21.2 |
| CC(C)(CNc1cccc(Cl)c1)NC(=O)C1CCCN(CC(N)=O)C1 (stereo unspecified) | -8.71 |
| CN1CCC(N(CCc2ccccc2)C(=O)c2ccc(C#N)cc2)CC1 | -7.31 |
| O=C(O)c1cc(-n2cc3c(n2)CCC3)cc(S(=O)(=O)N2CCOCC2)c1 | 3.53 |

| Structure (SMILES) | cytotoxicity at 70.5 h [%] |
| --- | --- |
| Cc1nc(C(C)C)sc1C(=O)NCCSc1nccn1C | -10.1 |
| CCC1CN(Cc2nc(C(C)C)no2)CCC(=O)N1Cc1ccccc1 (stereo unspecified) | 22.7 |
| Cc1ccnc(NC(=O)c2ccc(C)o2)c1 | 12.1 |
| CCOc1cccc(CN2CCCn3nc(CNS(C)(=O)=O)cc3C2)c1 | -9.54 |
| CN(C)C(=O)CN1CCC(c2nnc(Cn3cccn3)n2C2CC2)CC1 | -12 |
| Cc1cc(C)n(CC(=O)N2C[C@@H]3CC[C@H](C2)N(CC2CCC2)C3)c(=O)n1 | 24.1 |
| CC(C)c1nc(N2CCC(N3CCCCCC3)CC2)c2cnn(C)c2n1 | 13 |
| O=C(NCc1ccc(C(=O)N2CCCC2)cc1)c1cn2c(n1)CNCC2 | -3.69 |
| CC(=O)NCCc1cn(-c2cc(F)ccc2C)cn1 | -8.56 |
| COc1cccc2c1OCC(Cc1ccc(N)nc1C)C2 (stereo unspecified) | -1.03 |
| CCCc1ccc(CN2C[C@H]3C(=O)N(CC4CC4)C[C@@]3(C(=O)O)C2)o1 | -6.58 |
| CC(C)N1CCCC2(CCN(Cc3nncn3C(C)C)C2)C1=O (stereo unspecified) | -0.727 |
| COCCc1noc(CN(C)C(=O)C(C)N2CCc3ccccc3C2)n1 (stereo unspecified) | -9.3 |
| CCn1ncc2[nH]c(-c3cc(OC)c(OC)cc3OC)nc21 | 29.7 |
| Cc1cc(CNCc2c(C)n(CC(C)C)c3ccccc23)[nH]n1 | -5.55 |
| Cc1nn(C)c2nc(N(Cc3ccccn3)CC3CCCO3)sc12 (stereo unspecified) | 17.1 |
| Cc1noc(-c2ccc(N3CCN(Cc4ncccc4C)CC3)nc2)n1 | -7.47 |
| Cc1csc2ncnc(N3CCC(Cn4cc(C(C)(C)O)nn4)CC3)c12 | 5.18 |
| CCOCc1nc(CSc2ccncc2)n(C2CCN(C)CC2)n1 | 13 |
| CC(C)Cc1cc(C(=O)N2CCC[C@H]2C(=O)N2CCOCC2)on1 | -9.69 |
| CCc1nccn1CCC(=O)N1CC[C@H](CO)[C@H](O)C1 | -10.2 |
| Cc1ncsc1CN1C[C@H]2CC[C@@H]1CN(Cc1ccccc1)C2 | 30 |
| O=c1[nH]nc(C2CC2)n1-c1cccc(Cl)c1 | -4.41 |

| Structure (SMILES) | cytotoxicity at 70.5 h [%] |
| --- | --- |
| COCCOC(=O)N1CCC(c2nccn2CC2CC2)CC1 | -4.36 |
| Cc1nncn1CCN1C(=O)CC2(CCCC2)CC1=O | -7.54 |
| COc1ccccc1OCCCN1CC=C(c2cnn(C)c2)CC1 | -2.62 |
| CCCN1C[C@H]2CC[C@@H]1CN(c1nnc(C(C)C)s1)C2 | 27.1 |
| CCc1noc(CN(CC)C(=O)CC2C(=O)NCCN2CC=C(C)C)n1 (stereo unspecified) | 1.29 |
| COCCCN1CCN([C@@H]2c3ccccc3C3(CCNCC3)[C@H]2O)CC1 | 0.267 |
| OC1CN(Cc2ccccc2)CCN(c2ccncc2)C1 (stereo unspecified) | 11.5 |
| CC(C)N1CCC(CC(=O)N2CCCCC2CCn2cccn2)CC1 (stereo unspecified) | -10.4 |
| COc1cccc(OC)c1C(=O)N1C[C@@H](CN(C)C)[C@@H](CO)C1 | -2.79 |
| CCCc1ccc(CN2CCC3(CCC(=O)N(C)CC3)CC2)o1 | 17.3 |
| O=C1CC2(CCCC2)CC(=O)N1Cc1nc2ncccn2n1 | 1.37 |
| O=C1CC2(CCCC2)CC(=O)N1Cc1nccs1 | -1.44 |
| COc1cccc(N2CCC(N3C[C@@H](NC(C)=O)[C@H](C(C)C)C3)CC2)c1 | -6.54 |
| FC(F)(F)CCc1ccnc(NC2CCOC2)n1 (stereo unspecified) | 27.9 |
| COC[C@@H]1CCCN1C(=O)c1cc(-c2cccc(OC)c2)n[nH]1 | -2.07 |
| CSCC[C@H](NC(C)=O)c1nc(CCc2ccccc2)n[nH]1 | -3.53 |
| CCC[C@H]1CN(CCS(C)(=O)=O)C[C@@H]1NC(=O)c1cc[nH]n1 | -16 |
| CCCOC(C)C(=O)NCc1cc2n(n1)CCCN(C1CCCCC1)C2 (stereo unspecified) | 0.0071 |
| CCn1ccnc1CN1CCC(Oc2cccc(F)c2)(C(=O)O)CC1 | -4.69 |
| CN(CC1CCOCC1)C(C(=O)O)c1cccc(F)c1F (stereo unspecified) | 0.34 |
| Cc1nc2c(c(N(C)C)n1)CCN(C(=O)CN1CCC(O)CC1)C2 | -6.35 |
| CCNc1ncc(C(=O)NCc2csc(-c3cnccn3)n2)cn1 | -10.4 |
| Cc1ccc(CC2COc3ccccc3C2)c(N)n1 (stereo unspecified) | 16.3 |

| Structure (SMILES) | cytotoxicity at 70.5 h [%] |
| --- | --- |
| CC(C)NS(=O)(=O)c1cc(C(=O)O)cc(-c2ccc3c(c2)OCCO3)c1 | -8.82 |
| CN(C)CC(C)(C)Cn1cnc(-c2ccccc2)c1-c1cccc(O)c1 | -10.8 |
| CCCn1ccnc1CN1CCC(O)(CN2CCCCC2)C1 (stereo unspecified) | -4.35 |
| CCc1ncc(CN2CCC(Oc3ccccc3OC)CC2)cn1 | -0.00137 |
| CN(CCc1ncnn1C1Cc2ccccc2C1)C1CCS(=O)(=O)C1 (stereo unspecified) | -11.8 |
| CC(C)n1ccnc1CN1CCOC(CCc2ccccc2)C1 (stereo unspecified) | -13.7 |
| COc1ccc(-c2cc(CN)ccc2F)c(OC)c1OC | 6.26 |
| Cc1ccccc1Oc1ncccc1CNC1CCC1 | 1.33 |
| O=C(CCCn1cnnn1)N1CCC(c2ccncc2)CC1 | 22.6 |
| Cc1ccc(C2(C(=O)N3CCC(n4cc(C(C)O)nn4)CC3)CC2)cc1 (stereo unspecified) | -7.08 |
| Cc1ccc(N2C[C@@H](CN3CCOCC3)[C@@H](CO)C2)nn1 | -16.8 |
| COc1cc(N2CCCC(c3nccn3Cc3ccncc3)C2)ncn1 (stereo unspecified) | -6.57 |
| CSCCNC(=O)c1coc(COc2ccc(F)cc2)n1 | 7.74 |
| CCc1ccccc1OCCN(C)C(=O)CCN1CCCCO1 | -7.24 |
| Cc1ccnc(NCCNC(=O)c2ccccc2NCC(=O)O)c1 | 5.62 |
| CCCc1nc(N(C)Cc2cnc(NC)nc2)c2cnn(C)c2n1 | 8.94 |
| CCc1ccc(NC(=O)CCN2CC(n3nc(C)cc3C)C2)cc1 | -1.14 |
| NCCn1cc(C(=O)NCc2ccccc2Cn2cccn2)nn1 | -6.05 |
| N#Cc1ccccc1CN1C[C@H]2CC[C@@H]1CN(C(=O)c1cccnc1)C2 | -10.2 |
| CCC(C(=O)N(C)C)n1ccc2ncccc2c1=O (stereo unspecified) | -13.2 |
| CC(C)c1nc(Cn2cncn2)n(-c2ccccn2)n1 | -4.77 |
| O=C(CCn1ccnc1)N1CC[C@@H](c2ccc3ccccc3c2)[C@H](O)C1 | 4.4 |
| CN1CCC(c2ncc3c(n2)CCN(C(=O)CC2C=CCC2)C3)CC1 (stereo unspecified) | -7.45 |

| Structure (SMILES) | cytotoxicity at 70.5 h [%] |
| --- | --- |
| CC(=O)N1C[C@@H](c2ccsc2)[C@@H]2CN(Cc3ccccc3)CC[C@@H]21 | -10.8 |
| CC(=O)N1C[C@@H](c2ccsc2)[C@@H]2CN(Cc3cccc(Cl)c3)CC[C@@H]21 | 8.95 |
| CCc1nccn1-c1cncc(C2CCCN2Cc2cccnc2)n1 (stereo unspecified) | -5.1 |
| COc1ccccc1CC(=O)N1CC[C@@]2(CCCO2)[C@@H](OC)C1 | 25.6 |
| CCCc1cc(C(=O)N2CCOC(c3nc(-c4cccs4)no3)C2)no1 (stereo unspecified) | 1.76 |
| Cc1nccn1-c1cccc(C2CCCN2S(=O)(=O)c2cn(C)cn2)n1 (stereo unspecified) | 31.6 |
| Cc1nc(CN2CCCC(NCc3cccc4ccccc34)C2)no1 (stereo unspecified) | 27.7 |
| Cc1nc(C)n(C2CCCN(C(=O)CCOC(C)C)C2)n1 (stereo unspecified) | 10.2 |
| COc1c(C2CCCN2C(=O)c2scnc2C)c(C)nn1C (stereo unspecified) | -10.9 |
| Cc1nc(C)n(C2CCCN(C(=O)COc3cccc(C#N)c3)C2)n1 (stereo unspecified) | -20.2 |
| CC(C)c1nc(C2CCCN2Cc2ccncc2Cl)no1 (stereo unspecified) | -11.2 |
| Cc1nc(CN2CCCC(NCc3ccc(Cl)s3)C2)no1 (stereo unspecified) | -13 |
| COc1c(C2CCCN2C(=O)c2cnc(C)cn2)c(C)nn1C (stereo unspecified) | 10.6 |
| Cc1cccc(C(=O)NCc2ccc(CS(N)(=O)=O)cc2)n1 | -16.5 |
| CN(C)C(=O)C1CCN(Cn2nc(-c3ccc(F)cc3)oc2=O)CC1 | -5.92 |
| CNC(=O)COc1cccc(CNC(=O)c2c(C)noc2C(C)C)c1 | -13.2 |
| O=c1oc(-c2ccc(F)cc2)nn1CN1CCN(CC2CC2)CC1 | -21.3 |
| Cc1cccc(-c2nc(C)nn2CC(=O)NC(C)C)c1 | 18.6 |
| COc1ncc(C2(O)CCN(Cc3c(F)cccc3F)CC2)c(OC)n1 | 31.4 |
